# Reference: patent US20250051762A1, “PLATFORM USING DNA-ENCODED SMALL MOLECULE LIBRARIES AND RNA SELECTION TO DESIGN SMALL MOLECULES THAT TARGET RNA” (University of Florida Research Foundation, Incorporated, priority 2021, published 2025)
# Legend:
# mutant pri-miR-27a = assay: RT-qPCR of miR-27a biogenesis in MCF-10a cells transfected with mutant pri-miR-27a; type: cell-based, human; settings: mutant plasmid, 48 h
# Description: To gauge the specificity of 9 for pri-miR-27a, inhibition of biogenesis was first studied in a cellular model of healthy breast epithelium, MCF-10a, in which miR-27a expression is not detectable (Ct>31). MCF-10a cells were transfected with a plasmid encoding WT pri-miR-27a or mutant in which the two 5′GAG/3′CCC internal loops at and nearby the Drosha processing site were mutated to base pairs. In the absence of compound treatment, both primary miRNA transcripts were processed similarly, generating mature miR-27a, as determined by RT-qPCR.
# Cell lines. Compounds were tested in MDA-MB-231 TNBC cells (HTB-26, ATCC), LNCaP metastatic prostate cancer cells (gifted from Junli Luo lab), MCF-7 (HTB-22, ATCC) breast cancer cells, HeLa cervical adenocarcinoma cells (CCL-2, ATCC), and MCF-10a, a model of healthy breast epithelial cells (CRL-10317, ATCC).
# Cell culture and compound treatment. All cells were maintained at 37° C. with 5% CO2. […]
# Analysis of mRNA abundance: Each cell line was grown as a monolayer in 12- or 24-well plates and treated as described in “Cell culture and compound treatment”. […] Relative abundance of mature miRNAs was calculated by normalizing to RNU6, and relative abundance for pri-miRNAs and mRNAs was calculated by normalizing to 18S ribosomal RNA, using the AAC, method. […]
# PDCD4 = assay: Western blot of PDCD4 in MDA-MB-231 cells; type: cell-based, human; settings: relative to β-actin, 48 h
# Description: Western Blotting: MDA-MB-231 cells were grown in 6-well plates to ˜80% confluency in complete growth medium and then incubated with 9 at the indicated concentrations for 48 h. Total protein was extracted using M-PER Mammalian Protein Extraction Reagent (Pierce Biotechnology) using the manufacturer's protocol and quantified using a Micro BCA Protein Assay Kit (Pierce Biotechnology). Approximately 50 μg of total protein was separated on a 10% SDS-polyacrylamide gel, and then transferred to a PVDF membrane. The membrane was washed with 1× Tris-buffered saline (TBS) and then blocked in 1×TBST (1×TBS containing 0.1% (v/v) Tween-20) containing 5% (w/v) milk for 1 h at room temperature. […] The membrane was again washed with 1×TBST, and protein expression was quantified using SuperSignal West Pico Chemiluminescent Substrate (Pierce Biotechnology) per the manufacturer's protocol.
# To quantify b-actin expression, used for normalization, the membrane was stripped using 1× Stripping Buffer (200 mM glycine, pH 2.2 and 0.1% SDS) followed by washing in 1×TBST. […] The fold change of the target protein expression (PP4C or PDCD4) was calculated by normalizing its band intensity to b-actin band intensity using ImageJ.
compound,measurement,setting,value
C#CCN(CC(N)=O)C(=O)C[C@H](Cc1c[nH]c2ccccc12)NC(=O)[C@@H]1C[C@H](NC(=O)Cn2c(=O)[nH]c3ccccc3c2=O)CN1 [Compound 9],inhibition of biogenesis of mutated pri-miR-27a,mutant pri-miR-27a,did not inhibit biogenesis
same,PDCD4 expression,PDCD4,upregulation
